ChEMBL document CHEMBL4251569, “Camptothecin-psammaplin A hybrids as topoisomerase I and HDAC dual-action inhibitors” (Eur J Med Chem, 2018)

What was measured:
DG-75 [1] = experiment: cells; format: functional, cell-based; settings: Homo sapiens, DG-75, 72 h
cells [2] = format: functional, cell-based; settings: Homo sapiens, A2780/DX, 72 h
NB-4 = experiment: cells; format: functional, cell-based; settings: Homo sapiens, NB-4, 72 h
HT-29 = experiment: Antiproliferative activity against human HT-29 cells after 72 hrs by SRB assay; format: functional, cell-based; settings: HT-29, 72 h
cells [3] = format: functional, cell-based; settings: Homo sapiens, 72 h
MM473 = experiment: animal or person; settings: Mus musculus, MM473, iv, read-out: INH
cells [4] = format: functional, cell-based; settings: Homo sapiens, 72 h; remark: listed apart in the source
HepG2 = experiment: Antiproliferative activity against human HepG2 cells after 72 hrs by SRB assay; format: functional, cell-based; settings: HepG2, 72 h
JeKo-1 [5] = experiment: cells; format: functional, cell-based; settings: Homo sapiens, JeKo-1, 72 h
A-431 = experiment: cells; format: functional, cell-based; settings: Homo sapiens, A-431, 72 h
L-428 [6] = experiment: cells; format: functional, cell-based; settings: Homo sapiens, L-428, 72 h
NCI-H460 = experiment: cells; format: functional, cell-based; settings: Homo sapiens, NCI-H460, 72 h
L-428 [7] = experiment: Antiproliferative activity against human L428 cells at 10 uM after 72 hrs by MTT assay relative to control; format: functional
[8] = Antiproliferative activity against human Mino cells at 10 uM after 72 hrs by MTT assay relative to control; format: functional
HeLa = experiment: cells; format: functional, cell-based; settings: Homo sapiens, 72 h
DG-75 [9] = experiment: Antiproliferative activity against human DG75 cells at 10 uM after 72 hrs by MTT assay relative to control; format: functional
CAPAN-1 = experiment: cells; format: functional, cell-based; settings: Homo sapiens, CAPAN-1, 72 h
OCI-Ly3 [10] = experiment: Antiproliferative activity against human OCI-LY3 cells at 10 uM after 72 hrs by MTT assay relative to control; format: functional
A2780 = experiment: cells; format: functional, cell-based; settings: Homo sapiens, A2780, 72 h
U2932 = experiment: cells; format: functional, cell-based; settings: Homo sapiens, U2932, 72 h
cells [11] = format: functional, cell-based; settings: Homo sapiens, MINO, 72 h
DU-145 = experiment: cells; format: functional, cell-based; settings: Homo sapiens, DU-145, 72 h
OCI-Ly3 [12] = experiment: cells; settings: Homo sapiens, OCI-Ly3, 72 h
KM-H2 [13] = experiment: cells; settings: Homo sapiens, KM-H2, 72 h
KM-H2 [14] = experiment: Antiproliferative activity against human KM-H2 cells at 10 uM after 72 hrs by MTT assay relative to control; format: functional
JeKo-1 [15] = experiment: Antiproliferative activity against human JeKo1 cells at 10 uM after 72 hrs by MTT assay relative to control; format: functional
cells [16] = format: functional, cell-based; settings: Homo sapiens, MM487, 72 h

Structure (SMILES) | IC50 (cells [2]) | IC50 (HT-29) | IC50 (HepG2) | IC50 (A-431) | IC50 (NCI-H460) | IC50 (HeLa) | IC50 (CAPAN-1) | IC50 (A2780) | IC50 (DU-145) | other results
CCc1c2c(nc3ccc(OC(=O)N4CCC(N5CCCCC5)CC4)cc13)-c1cc3c(c(=O)n1C2)COC(=O)[C@]3(O)CC [IRINOTECAN] | 20100 nM | 4800 nM | 4000 nM | 4100 nM | 2400 nM | 5800 nM | 1500 nM | 3800 nM | 2800 nM | IC50 (DG-75 [1]): > 10000 nM; IC50 (NB-4): 1000 nM; IC50 (cells [3]): 10000 nM; inhibition in vivo at 20 mg/kg (MM473): 37%; IC50 (cells [4]): 740 nM; IC50 (JeKo-1 [5]): > 10000 nM; IC50 (L-428 [6]): > 10000 nM; Activity (L-428 [7]): 0%; Activity [8]: 36%; Activity (DG-75 [9]): 0%; Activity (OCI-Ly3 [10]): 0%; IC50 (U2932): 4400 nM; IC50 (cells [11]): > 10000 nM; IC50 (OCI-Ly3 [12]): > 10000 nM; IC50 (KM-H2 [13]): > 10000 nM; Activity (KM-H2 [14]): 12%; Activity (JeKo-1 [15]): 48%; IC50 (cells [16]): 9400 nM
CC[C@@]1(O)C(=O)OCc2c1cc1n(c2=O)Cc2c-1nc1ccccc1c2/C=N/OCCCCCC(=O)NCCSSCCNC(=O)/C(Cc1ccc(O)cc1)=N\O | 1600 nM | 460 nM | 610 nM | 310 nM | 220 nM | 580 nM | 75 nM | 290 nM | 190 nM | 
